“And” between values parts separate entries of the source, which are not always exact repeats. Identical values can stand only once. “Also recorded” adds a separate entry of the source.
Key:
[1] = test system: 25-hydroxylation of vitamin D3; details: high doses required; cited from earlier work
[2] = test system: enzymatic 25-hydroxylation of vitamin D3 (microsomal enzyme system from rat liver); experiment: in vitro 25-hydroxylation of vitamin D3 in rat liver microsomal enzyme system; assay type: biochemical
Protocol: Male rats, obtained as weanlings (Holtzman, Madison, WI) were maintained on a vitamin D-deficient 0.5% calcium and 0.3% phosphorus diet for 4-6 weeks prior to use for in vitro 25-hydroxylation assays. Animals were fasted 18 h to deplete glycogen stores prior to study.
The microsomes were prepared by the method of Madhok and DeLuca (Biochem. J. 184, 491 (1979)). Livers were homogenized in 3 vol of 0.25M sucrose using a Potter-Elvehjem homogenizer fitted with a Teflon pestle. All centrifugation steps were done using a type 30 rotor and a Beckman L5-50 ultracentrifuge (Beckman Instruments, Lincolnwood, Ill.). […]
The work-up of the incubation mixture involved separation of the organic phase, and evaporation of solvent; the residue was then taken up in hexane:CHCl3 :MeOH (90:10:5) and applied to a Sephadex LH-20 column (Pharmacia, Piscataway, N.J.) (0.7×12 cm). […] The radioactivity in the 25-OH-D3region was used as a measure of enzyme activity and the UV peak (254 nm) as a measure of recovery. Radioactivity was determined on a Packard Instruments 3255 liquid scintillation counter using a toluene counting solution with 0.4% p-bis-[2-(5-phenyloxazolyl)]-benzene and 0.03% dimethyl-1,4-bis-[2-(5-phenyloxazolyl)]-benzene. […] The enzyme activity was expressed as picomole product (25-OH-D3) produced per milligram protein per 2 hours.

Row | Compound | inhibition of 25-hydroxylation of vitamin D3 by known antagonists (in words) [1] | 25-OH-D3 Formation ([2]; [S] 200 nM vitamin D3, [I] 500 nM, inhibitor preincubated at 37° C. for 10 min, controls without inhibitor 0.46, 0.24, 0.36) | inhibition of 25-OH-D3 formation from vitamin D3 (in words) ([2]; rat liver microsomal system, 500 nM inhibitor, 2.5 times the substrate concentration)
1 | CC(C)CCC[C@@H](C)[C@H]1CC[C@H]2/C(=C/C=C3/C[C@@H](O)CCC3CO)CCC[C@]12C (stereo partly drawn) [19-hydroxy-10,19-dihydro-vitamin D3] | partial inhibition | – | –
2 | C=C1CC[C@H](O)C/C1=C/C=C1\CCC[C@]2(C)[C@@H]([C@H](C)CCC(=NO)C(C)C)CC[C@@H]12 [24-(NOH)D3, vitamin D3-24-oxime] | – | 0.09 pmol/2h/mg protein and 0.05 pmol/2h/mg protein | markedly suppressed; also recorded: dramatically suppresses

From patent US4481198A, “Vitamin D metabolism inhibitor” (Wisconsin Alumni Research Foundation, priority 1984, dated 1984)
